ChEMBL document CHEMBL1138048, “Synthesis and anticancer activity of brefeldin A ester derivatives” (J Med Chem, 2006)

What was measured:
MCF7 = test: Antiproliferative activity against human MCF7 cell line; assay type: functional
[1] = tested on: Panel NCI-60 (60 carcinoma cell lines); test: Antiproliferative activity against NCI60 cell line; assay type: functional; settings: Homo sapiens
UACC-62 = test: Antiproliferative activity against human UACC62 cell line; assay type: functional
A549 = test: Antiproliferative activity against human A549 cell line; assay type: functional
PC-3 = test: Antiproliferative activity against human PC3 cell line; assay type: functional
OVCAR-3 = test: Antiproliferative activity against human OVCAR-3 cell line; assay type: functional
[2] = Half life in rat plasma; assay type: ADME, cell-free
HCT-116 = test: Antiproliferative activity against HCT116 cell line; assay type: functional; settings: Homo sapiens
SF-539 = test: Antiproliferative activity against human SF539 cell line; assay type: functional
SN12C = test: Antiproliferative activity against human SN12C cell line; assay type: functional

SMILES	GI50 (MCF7) [nM]	GI50 (A549) [nM]	GI50 (PC-3) [nM]	GI50 (OVCAR-3) [nM]	half-life [2] [min]	GI50 (HCT-116) [nM]	GI50 [1] [nM]	GI50 (UACC-62) [nM]	GI50 (SF-539) [nM]	GI50 (SN12C) [nM]
C[C@H]1CCC/C=C/[C@@H]2C[C@H](OC(=O)CCCC(=O)O)C[C@H]2[C@H](O)/C=C/C(=O)O1	19000	33200	19500	20400	> 1440	21400	13000	–	22400	32400
CC(=O)O[C@@H]1C[C@@H]2[C@H](/C=C/CCC[C@H](C)OC(=O)/C=C/[C@H]2OC(C)=O)C1	2630	850	2140	1480	–	22900	450	10	58900	10
C[C@H]1CCC/C=C/[C@@H]2C[C@H](O)C[C@H]2[C@H](OC(=O)CCCC(=O)O)/C=C/C(=O)O1	39800	33100	43600	36300	–	25700	29500	31600	31600	30200
C[C@H]1CCC/C=C/[C@@H]2C[C@H](OC(=O)CCCC(=O)O)C[C@H]2[C@H](OC(=O)CCCC(=O)O)/C=C/C(=O)O1	> 100000	> 100000	> 100000	> 100000	–	> 100000	97700	> 100000	> 100000	> 100000
COC(=O)CCCC(=O)O[C@@H]1/C=C/C(=O)O[C@@H](C)CCC/C=C/[C@@H]2C[C@H](O)C[C@H]21	310	4170	40	2400	–	3470	160	10	3390	10
C[C@H]1CCC/C=C/[C@@H]2C[C@H](O)C[C@H]2[C@H](O)/C=C/C(=O)O1 [BREFELDIN A]	20	40	50	30	> 1440	30	40	20	–	–
COC(=O)CCCC(=O)O[C@@H]1C[C@@H]2[C@H](/C=C/CCC[C@H](C)OC(=O)/C=C/[C@H]2OC(=O)CCCC(=O)OC)C1	2570	12900	5010	600	–	3470	5100	4470	5010	3020

Now from value to molecule, other results behind:

GI50 (MCF7) [nM]	GI50 (A549) [nM]	GI50 (PC-3) [nM]	GI50 (OVCAR-3) [nM]	half-life [2] [min]	GI50 (HCT-116) [nM]	SMILES	GI50 [1] [nM]	GI50 (UACC-62) [nM]	GI50 (SF-539) [nM]	GI50 (SN12C) [nM]
40	50	60	30	3	40	COC(=O)CCCC(=O)O[C@@H]1C[C@H]2[C@H](O)/C=C/C(=O)O[C@@H](C)CCC/C=C/[C@@H]2C1	110	130	70	200
180	700	330	–	–	650	C[C@H]1CCC/C=C/[C@@H]2C[C@H](OC(=O)CCCC(=O)NCCCCCCO)C[C@H]2[C@H](O)/C=C/C(=O)O1	470	–	–	–
20	10	40	10	30	1150	CC(=O)O[C@@H]1C[C@H]2[C@H](O)/C=C/C(=O)O[C@@H](C)CCC/C=C/[C@@H]2C1	40	10	5250	10
